pIC50: −log10 of the molar value. Active and inactive are the calls of the source. No cut-off for these calls is given here.
Columns and labels:
[1] = tested on: K562; assay: Antiproliferative activity against human K562 cells assessed as reduction in cell viability measured for 48 hrs by MTT assay; format: functional, cell-based; details: K562, 48 h
[2] = tested on: HepG2; assay: Antiproliferative activity against human HepG2 cells assessed as reduction in cell viability measured for 48 hrs by MTT assay; format: functional, cell-based; details: HepG2, 48 h
[3] = tested on: HCT-116; assay: Antiproliferative activity against human HCT-116 cells assessed as reduction in cell viability measured for 48 hrs by MTT assay; format: functional, cell-based; details: HCT-116, 48 h
[4] = tested on: MCF7; assay: Antiproliferative activity against human MCF7 cells assessed as reduction in cell viability measured for 48 hrs by MTT assay; format: functional, cell-based; details: MCF7, 48 h
[5] = tested on: MGC-803; assay: Antiproliferative activity against human MGC-803 cells assessed as reduction in cell viability measured for 48 hrs by MTT assay; format: functional, cell-based; details: MGC-803, 48 h
[6] = tested on: A549; assay: Antiproliferative activity against human A549 cells assessed as reduction in cell viability measured for 48 hrs by MTT assay; format: functional, cell-based; details: A549, 48 h
[7] = tested on: NCI-H1299; assay: Antiproliferative activity against human NCI-H1299 cells assessed as reduction in cell viability measured for 48 hrs by MTT assay; format: functional, cell-based; details: NCI-H1299, 48 h
[8] = tested on: HT-29; assay: Antiproliferative activity against human HT-29 cells assessed as reduction in cell viability measured for 48 hrs by MTT assay; format: functional, cell-based; details: HT-29, 48 h
[9] = biological target: T1, Cyclin-dependent kinase 7 (Homo sapiens, UniProt P50613); assay: Inhibition of CDK7 (unknown origin)
[10] = biological target: T2, Dual specificity protein kinase CLK2 (Homo sapiens, UniProt P49760); assay: Inhibition of CLK2 (unknown origin)
Target sequence in this assay (P49760 whole entry): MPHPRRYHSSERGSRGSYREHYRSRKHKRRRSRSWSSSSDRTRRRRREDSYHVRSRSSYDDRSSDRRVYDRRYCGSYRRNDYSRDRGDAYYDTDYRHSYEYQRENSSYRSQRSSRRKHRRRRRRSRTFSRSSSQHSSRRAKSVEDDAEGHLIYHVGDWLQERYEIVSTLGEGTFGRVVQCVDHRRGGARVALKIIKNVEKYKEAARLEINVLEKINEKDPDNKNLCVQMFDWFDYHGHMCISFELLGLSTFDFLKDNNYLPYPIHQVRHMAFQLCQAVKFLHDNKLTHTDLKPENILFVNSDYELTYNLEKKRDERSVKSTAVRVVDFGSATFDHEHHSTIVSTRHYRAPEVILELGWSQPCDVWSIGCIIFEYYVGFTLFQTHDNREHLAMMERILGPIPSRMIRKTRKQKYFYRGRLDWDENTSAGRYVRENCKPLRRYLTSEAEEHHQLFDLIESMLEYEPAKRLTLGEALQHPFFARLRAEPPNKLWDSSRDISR

[11] = biological target: T3, Dual specificity protein kinase CLK4 (Homo sapiens, UniProt Q9HAZ1); assay: Inhibition of CLK4 (unknown origin)
Target sequence in this assay (Q9HAZ1 whole entry): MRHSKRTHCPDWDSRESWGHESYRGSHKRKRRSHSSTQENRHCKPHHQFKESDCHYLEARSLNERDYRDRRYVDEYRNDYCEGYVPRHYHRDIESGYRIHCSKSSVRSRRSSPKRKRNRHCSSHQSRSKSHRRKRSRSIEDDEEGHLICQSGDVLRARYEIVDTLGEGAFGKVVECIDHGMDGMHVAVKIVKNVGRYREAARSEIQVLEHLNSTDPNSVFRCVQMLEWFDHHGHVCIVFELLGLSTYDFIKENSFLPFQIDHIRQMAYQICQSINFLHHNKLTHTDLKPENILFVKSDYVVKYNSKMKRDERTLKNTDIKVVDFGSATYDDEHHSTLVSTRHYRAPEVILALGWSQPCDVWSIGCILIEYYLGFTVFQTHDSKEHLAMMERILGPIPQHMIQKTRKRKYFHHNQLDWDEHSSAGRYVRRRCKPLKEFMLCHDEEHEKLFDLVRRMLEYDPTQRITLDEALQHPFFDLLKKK

[12] = biological target: Dual specificity protein kinase CLK1 (Homo sapiens, UniProt P49759); assay: Inhibition of CLK1 (unknown origin)
[13] = biological target: Casein kinase I isoform epsilon (Homo sapiens, UniProt P49674); assay: Inhibition of CK1epsilon (unknown origin)
[14] = biological target: Dual specificity tyrosine-phosphorylation-regulated kinase 1A (Homo sapiens, UniProt Q13627); assay: Inhibition of DYRK1A (unknown origin)
[15] = tested on: PC-3; assay: Antiproliferative activity against human PC-3 cells assessed as reduction in cell viability measured for 48 hrs by MTT assay; format: functional, cell-based; details: PC-3, 48 h
[16] = tested on: MDA-MB-231; assay: Antiproliferative activity against human MDA-MB-231 cells assessed as reduction in cell viability measured for 48 hrs by MTT assay; format: functional, cell-based; details: MDA-MB-231, 48 h
[17] = tested on: MDA-MB-468; assay: Antiproliferative activity against human MDA-MB-468 cells assessed as reduction in cell viability measured for 48 hrs by MTT assay; format: functional, cell-based; details: MDA-MB-468, 48 h
[18] = Antiproliferative activity against human HUVEC cells assessed as reduction in cell viability measured for 48 hrs by MTT assay; format: toxicity, cell-based
[19] = Antiproliferative activity against human HEK293 cells assessed as reduction in cell viability measured for 48 hrs by MTT assay; format: toxicity, cell-based
[20] = tested on: MDA-MB-231; assay: Induction of ROS generation in human MDA-MB-231 cells assessed as increase in intracellular ROS level at 40 uM incubated for 48 hrs by DCFH-DA staining based fluorescence microscopic analysis (Rvb= 24.7%); format: functional
[21] = tested on: Cell membrane; assay: Induction of mitochondrial membrane potential loss in human MDA-MB-231 cells assessed as increase in fluorescence intensity at 40 uM incubated for 48 hrs by TMRM dye based flow cytometry analysis (reference value: 97.5%)
[22] = tested on: MDA-MB-231; assay: Inhibition of cell migration human MDA-MB-231 cells assessed as migration distance at 25 uM incubated for 24 hrs by wound healing assay (reference value: 642.72 micrometer); format: functional
[23] = tested on: MDA-MB-231; assay: Inhibition of cell migration human MDA-MB-231 cells assessed as migration distance at 25 uM incubated for 48 hrs by wound healing assay (reference value: 642.72 micrometer); format: functional
[24] = tested on: MDA-MB-231; assay: Inhibition of cell migration human MDA-MB-231 cells at 0.01 to 0.4 uM incubated for 20 hrs by DAPI staining based analysis; format: functional; details: dose 0.01-0.4 µM
[25] = tested on: HUVEC; assay: Antiangiogenesis activity in HUVEC cells at 125 nM incubated for 12 hrs by microscopic analysis; format: functional, cell-based; details: Homo sapiens
[26] = biological target: T1, Cyclin-dependent kinase 7; assay: Inhibition of CDK7 (unknown origin) at 1 uM relative to control
[27] = biological target: T1, Cyclin-dependent kinase 7; assay: Inhibition of CDK7 (unknown origin) at 10 uM relative to control
[28] = biological target: T2, Dual specificity protein kinase CLK2; assay: Inhibition of CLK2 (unknown origin) at 1 uM relative to control
Target sequence in this assay (P49760 whole entry, looked up): as the sequence (P49760 whole entry) above

[29] = biological target: T2, Dual specificity protein kinase CLK2; assay: Inhibition of CLK2 (unknown origin) at 10 uM relative to control
Target sequence in this assay (P49760 whole entry, looked up): as the sequence (P49760 whole entry) above

[30] = biological target: T3, Dual specificity protein kinase CLK4; assay: Inhibition of CLK4 (unknown origin) at 1 uM relative to control
Target sequence in this assay (Q9HAZ1 whole entry, looked up): as the sequence (Q9HAZ1 whole entry) above

[31] = biological target: T3, Dual specificity protein kinase CLK4; assay: Inhibition of CLK4 (unknown origin) at 10 uM relative to control
Target sequence in this assay (Q9HAZ1 whole entry, looked up): as the sequence (Q9HAZ1 whole entry) above

[32] = biological target: T4, Cyclin-dependent kinase 2/cyclin E1 (Homo sapiens) (UniProt P24864+P24941); assay: Inhibition of CDK2/Cyclin E (unknown origin) at 1 uM relative to control; format: protein-complex assay
[33] = biological target: T4, Cyclin-dependent kinase 2/cyclin E1 (Homo sapiens); assay: Inhibition of CDK2/Cyclin E (unknown origin) at 10 uM relative to control; format: protein-complex assay
[34] = biological target: T5, Cyclin-dependent kinase 5/CDK5 activator 1 (Homo sapiens) (UniProt Q00535+Q15078); assay: Inhibition of CDK5/P25 (unknown origin) at 1 uM relative to control; format: protein-complex assay
[35] = biological target: T5, Cyclin-dependent kinase 5/CDK5 activator 1 (Homo sapiens); assay: Inhibition of CDK5/P25 (unknown origin) at 10 uM relative to control; format: protein-complex assay
[36] = biological target: Cyclin-dependent kinase 9 (Homo sapiens) (UniProt P50750); assay: Inhibition of CDK9 (unknown origin) at 1 uM relative to control
[37] = biological target: Cyclin-dependent kinase 9 (Homo sapiens) (UniProt P50750); assay: Inhibition of CDK9 (unknown origin) at 10 uM relative to control

Dual specificity protein kinase CLK1, sequence (P49759 whole entry, canonical isoform): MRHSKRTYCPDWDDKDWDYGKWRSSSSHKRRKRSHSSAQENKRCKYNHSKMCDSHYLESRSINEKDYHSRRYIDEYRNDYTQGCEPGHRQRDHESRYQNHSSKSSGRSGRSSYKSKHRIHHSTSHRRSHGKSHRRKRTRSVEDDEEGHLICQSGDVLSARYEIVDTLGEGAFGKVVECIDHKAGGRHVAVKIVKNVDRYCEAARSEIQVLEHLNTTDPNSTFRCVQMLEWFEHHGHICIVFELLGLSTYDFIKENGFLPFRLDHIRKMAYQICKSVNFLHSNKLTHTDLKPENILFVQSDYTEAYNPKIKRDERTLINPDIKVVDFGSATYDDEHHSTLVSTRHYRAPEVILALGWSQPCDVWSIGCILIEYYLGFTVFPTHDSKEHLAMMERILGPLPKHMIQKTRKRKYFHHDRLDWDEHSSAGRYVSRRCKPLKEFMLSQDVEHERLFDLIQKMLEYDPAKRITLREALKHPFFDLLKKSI
T1 sequence (P50613 whole entry): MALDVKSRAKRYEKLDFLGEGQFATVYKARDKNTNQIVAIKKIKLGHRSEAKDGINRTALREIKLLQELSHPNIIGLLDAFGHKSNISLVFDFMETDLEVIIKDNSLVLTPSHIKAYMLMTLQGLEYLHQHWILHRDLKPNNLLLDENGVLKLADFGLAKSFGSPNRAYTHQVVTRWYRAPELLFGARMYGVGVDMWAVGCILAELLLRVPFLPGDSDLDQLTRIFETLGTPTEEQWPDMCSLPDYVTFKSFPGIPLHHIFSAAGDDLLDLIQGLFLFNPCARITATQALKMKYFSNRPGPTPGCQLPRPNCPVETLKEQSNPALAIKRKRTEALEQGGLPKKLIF
Casein kinase I isoform epsilon, sequence (P49674 whole entry, canonical isoform): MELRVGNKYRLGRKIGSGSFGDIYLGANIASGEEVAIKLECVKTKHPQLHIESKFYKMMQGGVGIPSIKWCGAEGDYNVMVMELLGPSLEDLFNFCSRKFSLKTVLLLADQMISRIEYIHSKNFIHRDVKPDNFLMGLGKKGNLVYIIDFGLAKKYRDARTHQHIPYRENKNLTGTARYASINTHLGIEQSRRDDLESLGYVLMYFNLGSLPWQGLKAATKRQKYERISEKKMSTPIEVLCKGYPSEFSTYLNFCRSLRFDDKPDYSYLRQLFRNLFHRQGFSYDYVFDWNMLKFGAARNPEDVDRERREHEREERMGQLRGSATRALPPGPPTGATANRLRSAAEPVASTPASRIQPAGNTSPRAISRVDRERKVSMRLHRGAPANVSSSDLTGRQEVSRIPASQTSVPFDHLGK
Cyclin-dependent kinase 9 (Homo sapiens), sequence (P50750 whole entry): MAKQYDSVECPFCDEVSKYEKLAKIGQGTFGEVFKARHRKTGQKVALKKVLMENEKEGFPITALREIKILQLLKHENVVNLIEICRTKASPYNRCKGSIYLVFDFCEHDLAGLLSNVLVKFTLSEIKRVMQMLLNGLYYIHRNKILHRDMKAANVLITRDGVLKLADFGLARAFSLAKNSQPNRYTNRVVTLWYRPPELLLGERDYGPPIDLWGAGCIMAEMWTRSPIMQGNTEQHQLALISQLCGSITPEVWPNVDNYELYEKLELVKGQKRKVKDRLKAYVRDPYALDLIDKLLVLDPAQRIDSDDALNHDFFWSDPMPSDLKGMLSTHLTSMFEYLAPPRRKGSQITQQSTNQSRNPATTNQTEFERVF
T5 sequence (Q00535 whole entry): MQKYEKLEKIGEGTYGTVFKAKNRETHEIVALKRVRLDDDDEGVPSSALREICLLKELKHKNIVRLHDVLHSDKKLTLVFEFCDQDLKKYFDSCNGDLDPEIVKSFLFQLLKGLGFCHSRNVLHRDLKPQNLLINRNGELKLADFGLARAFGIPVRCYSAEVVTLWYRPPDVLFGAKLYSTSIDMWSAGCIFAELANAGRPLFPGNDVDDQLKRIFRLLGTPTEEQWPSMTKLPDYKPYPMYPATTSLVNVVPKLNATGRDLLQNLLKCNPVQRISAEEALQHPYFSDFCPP
T5 sequence (Q15078 99-307 partner limits assumed): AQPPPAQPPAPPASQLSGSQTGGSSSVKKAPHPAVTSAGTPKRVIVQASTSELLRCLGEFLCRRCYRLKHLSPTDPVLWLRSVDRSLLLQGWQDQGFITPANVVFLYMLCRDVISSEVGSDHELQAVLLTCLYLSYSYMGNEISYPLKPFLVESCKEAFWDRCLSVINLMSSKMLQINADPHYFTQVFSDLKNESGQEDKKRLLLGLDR

| SMILES | pIC50 [1] | pIC50 [2] | pIC50 [3] | pIC50 [4] | pIC50 [5] | pIC50 [6] | pIC50 [7] | pIC50 [8] | pIC50 [9] | pIC50 [10] | pIC50 [11] | pIC50 [12] | pIC50 [13] | pIC50 [14] | pIC50 [15] | other results |
| --- | --- | --- | --- | --- | --- | --- | --- | --- | --- | --- | --- | --- | --- | --- | --- | --- |
| CC(C)n1cnc2c(NCc3cccnc3Cl)nc(N3CCC(C4CCN(CCO)CC4)CC3)nc21 | < 4.00 | < 4.00 | 4.26 | < 4.00 | < 4.00 | < 4.00 | < 4.00 | < 4.00 | – | – | – | – | – | – | – | – |
| OCCN1CCC(C2CCN(c3nc(NCc4ccc(Cl)c(F)c4)c4ncn(C5CCCC5)c4n3)CC2)CC1 | 5.58 | 5.76 | 5.53 | 5.55 | 4.70 | 5.45 | 5.32 | 5.38 | 5.69 | 7.24 | 6.90 | 6.11 | 6.71 | 6.35 | 5.14 | – |
| OCCN1CCC(C2CCN(c3nc(NCc4cc(F)cc(F)c4)c4ncn(C5CCCC5)c4n3)CC2)CC1 | 5.60 | 5.35 | 4.38 | 5.53 | 5.24 | 5.63 | 5.19 | 5.47 | – | – | – | – | – | – | 5.36 | – |
| CC(C)n1cnc2c(NCc3ccncc3)nc(N3CCC(C4CCN(CCO)CC4)CC3)nc21 | 4.51 | 4.23 | 4.61 | 4.99 | < 4.00 | 4.46 | 4.41 | 4.45 | – | – | – | – | – | – | – | – |
| CC(C)n1cnc2c(NCc3cc(F)cnc3Cl)nc(N3CCC(C4CCN(CCO)CC4)CC3)nc21 | 6.54 | 5.16 | 6.46 | 5.22 | 5.17 | 6.35 | 5.56 | 5.62 | – | – | – | – | – | – | – | pIC50 [16]: 6.40; pIC50 [17]: 5.39; IC50 at 48 h [18]: 1.55 µM; IC50 at 48 h [19]: 0.46 µM |
| CC(C)n1cnc2c(NCc3ccc(F)c(F)c3)nc(N3CCC(C4CCN(CCO)CC4)CC3)nc21 | 6.36 | 5.52 | 5.55 | 5.52 | 5.29 | 5.60 | 4.71 | 5.46 | 6.22 | 7.10 | 6.51 | 6.02 | 6.38 | 6.10 | 5.40 | – |
| CC[C@H](CO)Nc1nc(NCc2ccccc2)c2ncn(C(C)C)c2n1 [SELICICLIB] | < 4.00 | < 4.00 | 4.76 | < 4.00 | < 4.00 | < 4.00 | 4.08 | < 4.00 | – | – | – | – | – | – | < 4.00 | Activity [20]: 21.8%; Activity [21]: 87.5%; Activity [22]: 348.27 um; Activity [23]: 453.91 um; inhibition [24]: Active; Activity [25]: Active |
| CC(C)n1cnc2c(NCc3ccccc3)nc(N3CCC(C4CCN(CCO)CC4)CC3)nc21 | – | 5.74 | 5.65 | – | – | – | – | 5.50 | 6.84 | 7.17 | 6.80 | 6.39 | 6.11 | 6.06 | – | inhibition [26]: 88%; inhibition [27]: 96%; inhibition [28]: 99%; inhibition [29]: 99%; inhibition [30]: 92%; inhibition [31]: 97%; inhibition [32]: 2%; inhibition [33]: 49%; inhibition [34]: 4%; inhibition [35]: 42%; inhibition [36]: 8%; inhibition [37]: 40% |
| CC(C)n1cnc2c(NCc3ccccn3)nc(N3CCC(C4CCN(CCO)CC4)CC3)nc21 | 4.54 | 4.12 | 4.64 | 4.35 | < 4.00 | 4.42 | 4.27 | 4.27 | 7.37 | 7.70 | 7.33 | 6.76 | 6.78 | 6.68 | – | – |
| CC[C@@]1(O)C(=O)OCc2c1cc1n(c2=O)Cc2cc3ccccc3nc2-1 [CAMPTOTHECIN] | 7.10 | – | 6.68 | 5.19 | < 4.00 | 5.26 | < 4.00 | 6.72 | – | – | – | – | – | – | < 4.00 | pIC50 [16]: < 4.00; pIC50 [17]: < 4.00; IC50 at 48 h [18]: 0.04 µM; IC50 at 48 h [19]: 0.81 µM |
